We go through 13 compounds from PubChem BioAssay (NCI).

Some test systems named below: SNB-19 CNS; DU-145 prostate; NCI/ADR-RES ovarian; SN12C renal; SF-539 CNS; RPMI-8226 leukemia; HCT-15 colon; OVCAR-5 ovarian; SK-MEL-28 melanoma; OVCAR-3 ovarian.
Common to all, as to assay: DTP human tumour cell line panel, 48 h

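The compound was tested at five concentrations on cells cultured in 96-well plates, with a 48-hour exposure period. Abbreviation: GI50, concentration required for 50% inhibition of growth. Definition used: TGI = concentration required for complete inhibition of growth.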

For `Cn1ccc2c3c(=O)cc[nH]c3ccc21`, the GI50 with SNB-19 CNS, in the assay with DU-145 prostate, in the assay with NCI/ADR-RES ovarian, with SN12C renal, in the assay with SF-539 CNS and in the assay on RPMI-8226 leukemia was greater than 100 µM throughout. For the same compound, the GI50 (in general, the concentration at which growth is held to half of that of the control) with HCT-15 colon is greater than 100 µM; in the assay on OVCAR-5 ovarian, greater than 100 µM; in the assay on SK-MEL-28 melanoma it was 12.7 µM; in the assay on OVCAR-3 ovarian, greater than 100 µM. Further, the TGI in the assay on SNB-19 CNS, with DU-145 prostate, in the assay with NCI/ADR-RES ovarian, with SN12C renal, with SF-539 CNS and in the assay on RPMI-8226 leukemia was greater than 100 µM each time. Besides, the TGI in the assay with HCT-15 colon, with OVCAR-5 ovarian, with SK-MEL-28 melanoma and in the assay with OVCAR-3 ovarian was greater than 100 µM throughout.

`CC(C)C[C@H]1C(=O)N2CCC[C@H]2[C@]2(O)O[C@](NC(=O)[C@@H]3C=C4c5cccc6[nH]c(Br)c(c56)C[C@H]4N(C)C3)(C(C)C)C(=O)N12`: the TGI with SNB-19 CNS, with DU-145 prostate, in the assay with NCI/ADR-RES ovarian, in the assay on SN12C renal, with SF-539 CNS and in the assay on RPMI-8226 leukemia was greater than 100 µM in each case. Besides, the TGI in the assay with HCT-15 colon, in the assay with OVCAR-5 ovarian, in the assay on SK-MEL-28 melanoma and with OVCAR-3 ovarian was greater than 100 µM in each case.

`CCOc1ccc2c(c1)C(=O)c1c-2n(CCCN)c(=O)c2cc([N+](=O)[O-])ccc12`: the GI50 in the assay on SNB-19 CNS is 0.0346 µM; in the assay with DU-145 prostate, less than 0.0107 µM; in the assay with NCI/ADR-RES ovarian it was 0.0558 µM; with SN12C renal it was 0.0667 µM; with SF-539 CNS it was 0.0517 µM; with RPMI-8226 leukemia it was 0.0443 µM. Besides, the GI50 was 0.209 µM in the assay on HCT-15 colon, 0.324 µM with OVCAR-5 ovarian, 1.37 µM in the assay with SK-MEL-28 melanoma and 0.448 µM in the assay on OVCAR-3 ovarian. In addition, the TGI (in general, the concentration at which net growth stops) in the assay on SNB-19 CNS turned out to be 1.48 µM; with DU-145 prostate, 0.213 µM; with NCI/ADR-RES ovarian it was 1.82 µM; in the assay with SN12C renal, 1.93 µM; in the assay with SF-539 CNS, 0.209 µM; with RPMI-8226 leukemia, 0.302 µM. Besides, the TGI with HCT-15 colon was determined as 1.24 µM; with OVCAR-5 ovarian, 1.82 µM; in the assay on SK-MEL-28 melanoma it was 2.89 µM; with OVCAR-3 ovarian, 1.75 µM.

Consider `OCc1ncc(-c2ccccc2)s1`, for which the GI50 in the assay with SNB-19 CNS, in the assay with DU-145 prostate, with NCI/ADR-RES ovarian, with SN12C renal, in the assay with SF-539 CNS and in the assay with RPMI-8226 leukemia was greater than 100 µM throughout. Moreover, the GI50 in the assay with HCT-15 colon, with OVCAR-5 ovarian, in the assay with SK-MEL-28 melanoma and in the assay with OVCAR-3 ovarian was greater than 100 µM each time. The TGI in the assay on SNB-19 CNS, in the assay with DU-145 prostate, in the assay on NCI/ADR-RES ovarian, in the assay on SN12C renal, in the assay with SF-539 CNS and with RPMI-8226 leukemia was greater than 100 µM in each case. In addition, the TGI in the assay with HCT-15 colon, in the assay on OVCAR-5 ovarian, in the assay with SK-MEL-28 melanoma and in the assay with OVCAR-3 ovarian was greater than 100 µM each time.

For `C=C1C(=O)O[C@H]2[C@H]1CC/C(COC(=O)C(=O)c1c[nH]c3ccc(Cl)cc13)=C\CC[C@@]1(C)O[C@@H]21`, the GI50 with SNB-19 CNS is 3.22 µM; with DU-145 prostate, 1.9 µM; in the assay with NCI/ADR-RES ovarian it was 1.94 µM; in the assay with SN12C renal, 1.84 µM; in the assay with SF-539 CNS, 1.74 µM; in the assay with RPMI-8226 leukemia, 0.422 µM. Besides, the GI50 is 0.382 µM in the assay with HCT-15 colon, 2.1 µM in the assay on OVCAR-5 ovarian, 1.88 µM in the assay with SK-MEL-28 melanoma and 0.52 µM in the assay with OVCAR-3 ovarian. The TGI in the assay with SNB-19 CNS worked out at 10.8 µM; with DU-145 prostate, 4.13 µM; in the assay with NCI/ADR-RES ovarian it was 4.94 µM; with SN12C renal it was 4.17 µM; with SF-539 CNS, 3.32 µM; in the assay on RPMI-8226 leukemia, 3.29 µM. Moreover, the TGI amounted to 1.63 µM in the assay with HCT-15 colon, 5.17 µM in the assay on OVCAR-5 ovarian, 3.92 µM in the assay on SK-MEL-28 melanoma and 2.01 µM in the assay on OVCAR-3 ovarian.

Consider `Cc1cccc2c(N=Nc3ccccc3[N+](=O)[O-])c(O)[nH]c12`, for which the TGI in the assay with SNB-19 CNS is greater than 74.1 µM; in the assay on DU-145 prostate, greater than 100 µM; in the assay with NCI/ADR-RES ovarian it was greater than 31.4 µM; in the assay on SN12C renal, 26.8 µM; with SF-539 CNS, 8.96 µM; in the assay with RPMI-8226 leukemia it was greater than 89.3 µM. Besides, the TGI is 97.7 µM in the assay with HCT-15 colon, greater than 69.2 µM in the assay on OVCAR-5 ovarian, greater than 100 µM in the assay with SK-MEL-28 melanoma and 30 µM with OVCAR-3 ovarian.

On to `Cc1ccc(NC(=O)N2CCCCC2)cc1[N+](=O)[O-]`, for which the GI50 with SNB-19 CNS was greater than 100 µM; in the assay with DU-145 prostate, greater than 100 µM; in the assay on NCI/ADR-RES ovarian it was greater than 100 µM; in the assay on SN12C renal, greater than 100 µM; with SF-539 CNS, greater than 100 µM; in the assay with RPMI-8226 leukemia it was 90.1 µM. The GI50 in the assay on HCT-15 colon, in the assay on OVCAR-5 ovarian, in the assay on SK-MEL-28 melanoma and in the assay with OVCAR-3 ovarian was greater than 100 µM each time. In addition, the TGI with SNB-19 CNS, with DU-145 prostate, in the assay with NCI/ADR-RES ovarian, in the assay on SN12C renal, with SF-539 CNS and in the assay on RPMI-8226 leukemia was greater than 100 µM each time. The TGI in the assay with HCT-15 colon, in the assay with OVCAR-5 ovarian, with SK-MEL-28 melanoma and in the assay on OVCAR-3 ovarian was greater than 100 µM throughout.

In the case of `CC(C)c1ccc(/C=N/N=C(N)N)cc1`, the GI50 with SNB-19 CNS was 4.77 µM; with DU-145 prostate, 11.2 µM; in the assay on NCI/ADR-RES ovarian, 6.33 µM; in the assay with SN12C renal it was 6.35 µM; with SF-539 CNS it was 11.6 µM; in the assay on RPMI-8226 leukemia, 3.6 µM. For the same compound, the GI50 with HCT-15 colon was 4.19 µM; in the assay on OVCAR-5 ovarian, 12.9 µM; in the assay with SK-MEL-28 melanoma, 8.41 µM; in the assay with OVCAR-3 ovarian, 3.5 µM. Further, the TGI in the assay on SNB-19 CNS stood at 17.4 µM; in the assay on DU-145 prostate, 23.8 µM; with NCI/ADR-RES ovarian, 23.2 µM; with SN12C renal, 20.4 µM; in the assay with SF-539 CNS, 25.3 µM; in the assay on RPMI-8226 leukemia, 16.4 µM. Also, the TGI in the assay with HCT-15 colon was 16.8 µM; with OVCAR-5 ovarian, 30.2 µM; with SK-MEL-28 melanoma, 21 µM; in the assay on OVCAR-3 ovarian, 11.6 µM.

Turning to `N=C1N=C(N)S/C1=C\c1ccc2ncccc2c1`, the GI50 in the assay on SNB-19 CNS, in the assay with DU-145 prostate, in the assay on NCI/ADR-RES ovarian, with SN12C renal, with SF-539 CNS and in the assay with RPMI-8226 leukemia was greater than 25 µM each time. Further, the GI50 with HCT-15 colon, with OVCAR-5 ovarian, in the assay with SK-MEL-28 melanoma and in the assay with OVCAR-3 ovarian was greater than 25 µM in each case. The TGI in the assay with SNB-19 CNS, in the assay on DU-145 prostate, in the assay with NCI/ADR-RES ovarian, in the assay on SN12C renal, with SF-539 CNS and in the assay with RPMI-8226 leukemia was greater than 25 µM throughout. Further, the TGI in the assay on HCT-15 colon, in the assay on OVCAR-5 ovarian, in the assay with SK-MEL-28 melanoma and in the assay with OVCAR-3 ovarian was greater than 25 µM each time.

Regarding `O=C(O)c1nnsc1-c1csnn1`, the TGI in the assay on SNB-19 CNS, in the assay with DU-145 prostate, in the assay on NCI/ADR-RES ovarian, with SN12C renal, with SF-539 CNS and with RPMI-8226 leukemia was greater than 100 µM each time. For the same compound, the TGI in the assay with HCT-15 colon, in the assay on OVCAR-5 ovarian, in the assay with SK-MEL-28 melanoma and with OVCAR-3 ovarian was greater than 100 µM in each case.

As to `CN(C)CCCN1c2ccc(O)cc2Sc2ccc(Cl)cc21`, the TGI with SNB-19 CNS was found to be 27.6 µM; with DU-145 prostate, 31.8 µM; with NCI/ADR-RES ovarian, 30.1 µM; in the assay with SN12C renal, 23.1 µM; in the assay on SF-539 CNS, 28.7 µM; with RPMI-8226 leukemia it was 21.9 µM. Also, the TGI in the assay with HCT-15 colon amounted to 29 µM; in the assay on OVCAR-5 ovarian, 30.8 µM; in the assay on SK-MEL-28 melanoma, 24.7 µM; in the assay on OVCAR-3 ovarian it was 24.5 µM.

On to `Cc1[nH]c(=O)nc(N/N=C/c2ccc(Cl)cc2)c1C(=O)Nc1ccc(Cl)cc1`, for which the TGI in the assay with SNB-19 CNS was greater than 15.8 µM; in the assay with DU-145 prostate it was greater than 100 µM; with NCI/ADR-RES ovarian, greater than 100 µM; with SN12C renal, greater than 100 µM; with SF-539 CNS, 67.6 µM; in the assay with RPMI-8226 leukemia, greater than 80.2 µM. Further, the TGI was greater than 100 µM with HCT-15 colon, greater than 100 µM in the assay with OVCAR-5 ovarian, greater than 86.1 µM in the assay on SK-MEL-28 melanoma and 35.6 µM with OVCAR-3 ovarian.

On to `COc1ccc2c(c1)C(=O)c1c-2n(CCCN=[N+]=[N-])c(=O)c2cc(N)ccc12`, for which the GI50 in the assay with SNB-19 CNS, with DU-145 prostate, in the assay with NCI/ADR-RES ovarian, in the assay on SN12C renal, in the assay on SF-539 CNS and in the assay with RPMI-8226 leukemia was greater than 100 µM throughout. The GI50 in the assay with HCT-15 colon, in the assay with OVCAR-5 ovarian and in the assay with OVCAR-3 ovarian was greater than 100 µM in each case. Also, the TGI with SNB-19 CNS, with DU-145 prostate, in the assay on NCI/ADR-RES ovarian, in the assay on SN12C renal, in the assay with SF-539 CNS and with RPMI-8226 leukemia was greater than 100 µM in each case. The TGI in the assay with HCT-15 colon, with OVCAR-5 ovarian, in the assay with SK-MEL-28 melanoma and in the assay with OVCAR-3 ovarian was greater than 100 µM in each case.
